These molecules were tested against ASGPR (Homo sapiens (Human), UniProt P07306) (assay: Affinity to ASGPR measured by surface plasmon resonance (SPR)). Details: ASGPR ligands, Table 4; class symbols; read-out: ASGPR_PR Binding KD.
Sequence of ASGPR (P07306 whole entry): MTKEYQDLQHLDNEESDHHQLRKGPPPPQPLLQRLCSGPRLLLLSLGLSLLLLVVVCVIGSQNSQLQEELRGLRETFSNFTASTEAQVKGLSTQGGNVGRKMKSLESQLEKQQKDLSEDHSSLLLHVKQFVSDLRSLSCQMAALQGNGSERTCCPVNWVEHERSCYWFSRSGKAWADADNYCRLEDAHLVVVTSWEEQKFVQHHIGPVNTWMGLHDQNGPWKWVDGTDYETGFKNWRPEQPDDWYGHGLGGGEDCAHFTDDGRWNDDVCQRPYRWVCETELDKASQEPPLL
Assay type: binding
In the case of `COc1ccnc(N[C@H]2CO[C@H](CO)[C@H](O)[C@@H]2O)n1` [Compound A323], the Kd is reported as < 100 µM.
In the case of `OC[C@H]1OC[C@H](Nc2ncc(Cl)c(C(F)(F)F)n2)[C@@H](O)[C@H]1O` [Compound A324], the Kd is reported as < 100 µM.
For `COc1nc(N[C@H]2CO[C@H](CO)[C@H](O)[C@@H]2O)nc(OC)n1` [Compound A325], the Kd was < 100 µM.
For `COc1nc(C#N)cc(N[C@H]2CO[C@H](CO)[C@H](O)[C@@H]2O)n1` [Compound A326], the Kd was < 100 µM.
In the case of `COc1nc(Cl)cc(N[C@H]2CO[C@H](CO)[C@H](O)[C@@H]2O)n1` [Compound A327], the Kd is reported as < 100 µM.
`COc1nc(Cl)nc(N[C@H]2CO[C@H](CO)[C@H](O)[C@@H]2O)n1` [Compound A330] was tested, and the Kd was < 100 µM.
`CSc1nc(Cl)cc(N[C@H]2CO[C@H](CO)[C@H](O)[C@@H]2O)n1` [Compound A331, (2R,3R,4R,5S)-5-((6-chloro-2-(methylthio)pyrimidin-4-yl)amino)-2-(hydroxymethyl)tetrahydro-2H-pyran-3,4-diol] was tested, and the Kd was < 100 µM.
With `N#Cc1cccc(N[C@H]2CO[C@H](CO)[C@H](O)[C@@H]2O)n1` [Compound A332] the Kd was < 100 µM.
For `Cc1cc(C(F)(F)F)nc(N[C@H]2CO[C@H](CO)[C@H](O)[C@@H]2O)n1` [Compound A334], the Kd was < 100 µM.
`OC[C@H]1OC[C@H](Nc2nccc(C(F)F)n2)[C@@H](O)[C@H]1O` [Compound A335] was tested, and the Kd was < 100 µM.
With `CSc1ccnc(N[C@H]2CO[C@H](CO)[C@H](O)[C@@H]2O)n1` [Compound A336] the Kd was < 100 µM.
With `CN1CCN(c2nsc(N[C@H]3CO[C@H](CO)[C@H](O)[C@@H]3O)n2)CC1` [Compound A338, (2R,3R,4R,5S)-2-(hydroxymethyl)-5-((3-(4-methylpiperazin-1-yl)-1,2,4-thiadiazol-5-yl)amino)tetrahydro-2H-pyran-3,4-diol] the Kd was < 100 µM.
With `CN(C)c1nsc(N[C@H]2CO[C@H](CO)[C@H](O)[C@@H]2O)n1` [Compound A339, (2R,3R,4R,5S)-5-((3-(dimethylamino)-1,2,4-thiadiazol-5-yl)amino)-2-(hydroxymethyl)tetrahydro-2H-pyran-3,4-diol] the Kd was < 100 µM.
For `OC[C@H]1OC[C@H](Nc2nc(N3CCOCC3)ns2)[C@@H](O)[C@H]1O` [Compound A340, (2R,3R,4R,5S)-2-(hydroxymethyl)-5-((3-morpholino-1,2,4-thiadiazol-5-yl)amino)tetrahydro-2H-pyran-3,4-diol], the Kd was < 100 µM.
With `Nc1nsc(N[C@H]2CO[C@H](CO)[C@H](O)[C@@H]2O)n1` [Compound A341, (2R,3R,4R,5S)-5-((3-amino-1,2,4-thiadiazol-5-yl)amino)-2-(hydroxymethyl)tetrahydro-2H-pyran-3,4-diol] the Kd was < 100 µM.
With `O=C(N[C@H]1CO[C@H](CO)[C@H](O)[C@@H]1O)c1ccccc1` [Compound A342, N-((3S,4R,5R,6R)-4,5-dihydroxy-6-(hydroxymethyl)tetrahydro-2H-pyran-3-yl)benzamide] the Kd was < 100 µM.
`O=S(=O)(N[C@H]1CO[C@H](CO)[C@H](O)[C@@H]1O)C(F)(F)F` [Compound A344] was tested, and the Kd was < 100 µM.
With `O=c1ccn([C@H]2CO[C@H](CO)[C@H](O)[C@@H]2O)cc1` [Compound A345, 1-((3S,4R,5R,6R)-4,5-dihydroxy-6-(hydroxymethyl)tetrahydro-2H-pyran-3-yl)pyridin-4(1H)-one] the Kd was < 100 µM.
For `COc1cc(C#N)nc(N[C@H]2CO[C@H](CO)[C@H](O)[C@@H]2O)n1` [Compound A346, 2-(((3S,4R,5R,6R)-4,5-dihydroxy-6-(hydroxymethyl)tetrahydro-2H-pyran-3-yl)amino)-6-methoxypyrimidine-4-carbonitrile], the Kd was < 100 µM.

Same assay, conditions: ASGPR ligands, Table 4; numeric lower bounds; read-out: ASGPR_PR Binding KD
For `OC[C@H]1OC[C@H](Nc2cc(Cl)nc(C(F)(F)F)n2)[C@@H](O)[C@H]1O` [Compound A328], the Kd was > 20 µM.
`COc1cc(N[C@H]2CO[C@H](CO)[C@H](O)[C@@H]2O)nc(C#N)n1` [Compound A333] was tested, and the Kd was > 10 µM.
